According to article PMC12606641, “Surface Density of Mono- and Trivalent High-Mannan-Derived Targeting Structures with Different Affinities Impacts Cellular Uptake of Human Serum Albumin-Derived Nanocarriers” (Biomacromolecules, 2025):

Assays:
CD209 CRD = biological target: T1, CD209 CRD (Homo sapiens, UniProt Q9NNX6); test: NanoDSF thermal shift binding study, CD209 CRD; details: for Kd: calculated from EC50 with KD=(1−fuo)×(EC50−[P]/2); for EC50: 12 μM protein, unfolded fraction evaluated at 63 °C, Hill fit, read-out: EC50 (unfolded fraction vs TS concentration)
T1 construct: Carbohydrate recognition domain of CD209; inferred from HisTrap/imidazole purification; made in house
T1 sequence (Q9NNX6 263-378 limits assumed): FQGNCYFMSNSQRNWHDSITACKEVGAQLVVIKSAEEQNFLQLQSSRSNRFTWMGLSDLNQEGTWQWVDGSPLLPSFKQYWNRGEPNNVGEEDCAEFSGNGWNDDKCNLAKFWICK
Procedure: (§1) Thermal shift experiments were performed by using a Prometheus NanoDSF instrument (NanoTemper, Munich, Germany). […] Each ligand concentration was measured in triplicate. Samples were subjected to a controlled temperature increase from 20 to 85 °C at a rate of 1.5 °C per minute. Protein unfolding was monitored by measuring the fluorescence emission ratio at 350 and 330 nm. […] Data were analyzed according to the vertical slice method developed by Bai et al. The unfolded fraction was plotted against the ligand concentration, and EC50 values were determined by fitting the data to the Hill equation using GraphPad Prism 8.0.1. K D values were calculated using eq based on the unfolded fraction in the absence of ligand (f uo) and the total protein concentration ([P]). Associated errors were determined according to the standard error propagation rules. KD=(1−fuo)×(EC50−[P]/2) 1 […]
(§2) In this study, NanoDSF was used to investigate the binding affinity of unconjugated monovalent TSs ManN3 and Man3N3, as well as the trivalent TSs (Man)3N3 and (Man3)3N3 for isolated CRDs of CD206 and CD209. Utilization of isolated CRDs instead of the complete tetrameric and octameric receptors allowed an investigation of the affinity without the potential occurrence of avidity effects taking place on the receptor side. […] The observed binding affinities to the isolated CRDs were in the low millimolar range, with all ligands showing stabilizing effects. […] In the solid-phase assay, the biotinylated CRDs were immobilized on streptavidin-coated plates in a defined orientation, likely enhancing the effective presentation of the binding site. In contrast, NanoDSF measurements were conducted with isolated, solubilized monomeric CRDs without surface- or orientation-related effects. Additionally, steric effects and interactions arising from the linker moiety may also impact binding affinity.
(§3) 3 NanoDSF study for binding of mono- and trivalent TSs ManN3, Man3N3, (Man)3N3, and (Man3)3N3 to the CRDs of CD206 and CD209. (A) Affinity of mono- and trivalent TSs for CRD4 of CD206. (B) Affinity of mono- and trivalent TSs for CRD of CD209. The unfolded fraction of each CRD at different TS concentrations was determined at 53 °C for CD206 and at 63 °C for CD209. The unfolded fraction was plotted against TS concentration, and EC50 values were determined using GraphPad Prism 8.0.1. The respective K D values were calculated from EC50, as described in section , and are given for each case.
D (150 mM NaCl, 25 mM Tris-Cl, pH 7.8, 25 mM CaCl₂), the bound protein was eluted with buffer E (150 mM NaCl, 25 mM Tris-Cl, pH 7.8, 2.5 mM EDTA).
6.1.2 Carbohydrate recognition domain of CD209
The recombinant CRD of CD209 was expressed as described previously.55 Briefly, a pET-30 expression vector containing the CRD of CD209 was transformed into competent Escherichia coli (E. coli) BL21 (DE3) cells. The cells were grown in LB medium containing 100 µg/mL kanamycin at 37 °C and 160 rpm until they reached an optical density (OD₆₀₀) of approximately 0.7. Overexpression was induced by adding 0.5 mM IPTG for approximately 3 hours at 37 °C. Cells were harvested by centrifugation (10.000 × g at 4 °C for 15 minutes) and resuspended in cold buffer A (25 mM Tris-Cl, 150 mM NaCl, pH 8) supplemented with lysozyme, one tablet of protease inhibitor (cOmplete ™, Roche), and DNase I. Lysis was performed by thoroughly sonicating the resuspended cell pellets. Cell debris and inclusion bodies were collected by centrifugation (20,000 × g at 4 °C for 1 hour), and the supernatant was discarded. The inclusion bodies were resuspended in buffer A supplemented with 2 M urea and 1% Triton X-100. After a second centrifugation step, the inclusion bodies were solubilized in buffer A supplemented with 6 M guanidine hydrochloride and 0.01 % 2-mercaptoethanol. Insoluble impurities were removed by centrifugation (20.000 × g at 4 °C for 1 hour). The resulting supernatant was dialyzed […]

CD206 CRD4 = biological target: T2, CD206 CRD4 (Homo sapiens, UniProt P22897); test: NanoDSF thermal shift binding study, CD206 CRD4; details: for Kd: CD206 CRD4, calculated from EC50 with KD=(1−fuo)×(EC50−[P]/2); for EC50: CD206 CRD4, 12 μM protein, unfolded fraction evaluated at 53 °C, Hill fit, read-out: EC50 (unfolded fraction vs TS concentration)
T2 construct: Carbohydrate recognition domain 4 of CD206; made in house
T2 sequence (P22897 655-778 limits assumed): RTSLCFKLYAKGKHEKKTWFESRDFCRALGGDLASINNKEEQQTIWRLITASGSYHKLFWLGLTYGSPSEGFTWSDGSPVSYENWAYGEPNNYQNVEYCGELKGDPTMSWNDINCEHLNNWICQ
Procedure: as §1, §2
as §3, with “case. […]” for “case.”
6 NanoDSF binding study for mono- and trivalent TSs
6.1 Recombinant protein expression and purification.
6.1.1 Carbohydrate recognition domain 4 of CD206
CRD 4 of CD206 was expressed as described previously.50 Briefly, a pT5T expression vector containing CRD4 of CD206 was transformed into competent Escherichia coli (E. coli) BL21 (DE3) cells. The cells were grown in LB medium containing 100 µg/mL ampicillin at 37 °C and 160 rpm until they reached an optical density (OD₆₀₀) of approximately 0.7. Overexpression was induced by adding 0.4 mM Isopropyl-β-D-thiogalactopyranoside (IPTG) for approximately 2.5 hours at 37 °C. Cells were harvested by centrifugation (10.000 × g at 4 °C for 15 minutes) and resuspended in cold buffer A (10 mM Tris-Cl, pH 7.8). Lysis was performed by thoroughly sonicating the cell pellets. Cell debris and inclusion bodies were collected by centrifugation (18,000 × g at 4 °C for 15 minutes), and the supernatant was discarded.
The inclusion bodies were then solubilized in 100 mL of denaturing buffer B (6 M guanidine-HCl, 100 mM Tris-Cl, pH 7.0). After adding 2-mercaptoethanol (10 µL), the suspension was incubated at 4 °C on ice for 30 minutes. Insoluble impurities were removed by centrifugation (18,000 × g at 4 °C for 30 minutes). The supernatant was refolded by three-step dialysis against 2 L of buffer C (0.5 M NaCl, 25 mM Tris-Cl, pH 7.8, 25 mM CaCl₂) at 4 °C overnight. After centrifugation (18,000 × g at 4 °C for […]

[1] = tested on: tetrameric extracellular domains (ECDs) of CD209; parameters: method as in Li et al.; details: TS presented in a trivalent manner, SPR, CD209 ECD; ref Li et al.; read-out: IC50 (binding affinity), trivalent presentation; cited from earlier work

Compound	Kd (CD209 CRD) [mM]	Kd (CD206 CRD4) [mM]	EC50 (CD209 CRD) [mM]	EC50 (CD206 CRD4) [mM]	IC50 [1] [mM]
[N-]=[N+]=NCCOCCOCCOCCC(=O)NC(COCCC(=O)NCCOCCOCCOCCn1cc(CO[C@H]2O[C@H](CO)[C@@H](O)[C@H](O)[C@@H]2O)nn1)(COCCC(=O)NCCOCCOCCOCCn1cc(CO[C@H]2O[C@H](CO)[C@@H](O)[C@H](O)[C@@H]2O)nn1)COCCC(=O)NCCOCCOCCOCCn1cc(CO[C@H]2O[C@H](CO)[C@@H](O)[C@H](O)[C@@H]2O)nn1 [(Man)3N3]	10.3	6.8			
[N-]=[N+]=NCCOCCOCCOCCn1cc(CO[C@H]2O[C@H](CO)[C@@H](O)[C@H](O)[C@@H]2O)nn1 [ManN3]	> 36.3	1.3	> 79.8	3.1 ± 0.6	
[N-]=[N+]=NCCOCCOCCOCCn1cc(CO[C@H]2O[C@H](CO[C@H]3O[C@H](CO)[C@@H](O)[C@H](O)[C@@H]3O)[C@@H](O)[C@H](O[C@H]3O[C@H](CO)[C@@H](O)[C@H](O)[C@@H]3O)[C@@H]2O)nn1 [Man3N3]	7.2	6.9	16.4 ± 1.9	14.9 ± 0.97	
[N-]=[N+]=NCCOCCOCCOCCC(=O)NC(COCCC(=O)NCCOCCOCCOCCn1cc(CO[C@H]2O[C@H](CO[C@H]3O[C@H](CO)[C@@H](O)[C@H](O)[C@@H]3O)[C@@H](O)[C@H](O[C@H]3O[C@H](CO)[C@@H](O)[C@H](O)[C@@H]3O)[C@@H]2O)nn1)(COCCC(=O)NCCOCCOCCOCCn1cc(CO[C@H]2O[C@H](CO[C@H]3O[C@H](CO)[C@@H](O)[C@H](O)[C@@H]3O)[C@@H](O)[C@H](O[C@H]3O[C@H](CO)[C@@H](O)[C@H](O)[C@@H]3O)[C@@H]2O)nn1)COCCC(=O)NCCOCCOCCOCCn1cc(CO[C@H]2O[C@H](CO[C@H]3O[C@H](CO)[C@@H](O)[C@H](O)[C@@H]3O)[C@@H](O)[C@H](O[C@H]3O[C@H](CO)[C@@H](O)[C@H](O)[C@@H]3O)[C@@H]2O)nn1 [(Man3)3N3]	> 26.6	3.1			
trimannose					0.0024
